Active and inactive are the calls of the source. The rule behind the calls is not given here.

This series has as its system CCRIS mutagenicity, Ames/micronucleus/aberration tests. As to the kind of experiment: CCRIS mutagenicity studies.
The mark [1] stands for this setting: Test System: AMES SALMONELLA TYPHIMURIUM, Strain/Indicator: TA100, Metabolic Activation: RAT, LIVER, S-9, PHENOBARBITAL, Method: STANDARD PLATE.

Regarding `CN(C)/N=N/c1nc[nH]c1C(N)=O`, the mutagenic call was “inactive; negative” (Test System: AMES SALMONELLA TYPHIMURIUM, Strain/Indicator: G46, Metabolic Activation: NONE, Method: STANDARD PLATE); “active; positive” (Test System: AMES SALMONELLA TYPHIMURIUM, Strain/Indicator: G46, Metabolic Activation: RAT, LIVER, S-9, PHENOBARBITAL, Method: STANDARD PLATE); “active; positive” (Test System: AMES SALMONELLA TYPHIMURIUM, Strain/Indicator: TA92, Metabolic Activation: NONE, Method: STANDARD PLATE); “active; positive” (Test System: AMES SALMONELLA TYPHIMURIUM, Strain/Indicator: TA92, Metabolic Activation: RAT, LIVER, S-9, PHENOBARBITAL, Method: STANDARD PLATE); “active; positive” (Test System: AMES SALMONELLA TYPHIMURIUM, Strain/Indicator: TA97, Metabolic Activation: HAMSTER, LIVER, S-9, AROCLOR 1254 (10%), Method: PREINCUBATION); “active; positive” (Test System: AMES SALMONELLA TYPHIMURIUM, Strain/Indicator: TA97, Metabolic Activation: NONE, Method: PREINCUBATION). Besides, the mutagenic call by setting is: (Test System: AMES SALMONELLA TYPHIMURIUM, Strain/Indicator: TA97, Metabolic Activation: RAT, LIVER, S-9, AROCLOR 1254 (10%), Method: PREINCUBATION) “active; positive”; (Test System: AMES SALMONELLA TYPHIMURIUM, Strain/Indicator: TA98, Metabolic Activation: HAMSTER, LIVER, S-9, AROCLOR 1254 (10%), Method: PREINCUBATION) “active; positive”; (Test System: AMES SALMONELLA TYPHIMURIUM, Strain/Indicator: TA98, Metabolic Activation: RAT, LIVER, S-9, AROCLOR 1254 (10%), Method: PREINCUBATION) “active; positive”; (Test System: AMES SALMONELLA TYPHIMURIUM, Strain/Indicator: TA98, Metabolic Activation: S-9, Method: PREINCUBATION) “inactive; negative”; (Test System: AMES SALMONELLA TYPHIMURIUM, Strain/Indicator: TA100, Metabolic Activation: HAMSTER, LIVER, S-9, AROCLOR 1254 (10%), Method: PREINCUBATION) “active; positive”; (Test System: AMES SALMONELLA TYPHIMURIUM, Strain/Indicator: TA100, Metabolic Activation: NONE, Method: STANDARD PLATE) “active; positive”. Moreover, the mutagenic call is, setting by setting: (Test System: AMES SALMONELLA TYPHIMURIUM, Strain/Indicator: TA100, Metabolic Activation: RAT, LIVER, S-9, AROCLOR 1254 (10%), Method: PREINCUBATION) “active; positive”; under setting [1], “active; positive”; (Test System: AMES SALMONELLA TYPHIMURIUM, Strain/Indicator: TA100, Metabolic Activation: S-9, Method: PREINCUBATION) “inactive; negative”; (Test System: AMES SALMONELLA TYPHIMURIUM, Strain/Indicator: TA1535, Metabolic Activation: HAMSTER, LIVER, S-9, AROCLOR 1254 (10%), Method: PREINCUBATION) “active; positive”; (Test System: AMES SALMONELLA TYPHIMURIUM, Strain/Indicator: TA1535, Metabolic Activation: NONE, Method: PREINCUBATION) “inactive; negative”; (Test System: AMES SALMONELLA TYPHIMURIUM, Strain/Indicator: TA1535, Metabolic Activation: RAT, LIVER, S-9, AROCLOR 1254 (10%), Method: PREINCUBATION) “active; positive”. Moreover, the mutagenic call was “active; positive” (Test System: E. COLI, Strain/Indicator: TM6, Metabolic Activation: NONE, Method: STANDARD PLATE); “active; positive” (Test System: E. COLI, Strain/Indicator: TM6, Metabolic Activation: RAT, LIVER, S-9, PHENOBARBITAL, Method: STANDARD PLATE); “active; positive” (Test System: E. COLI, Strain/Indicator: TM9, Metabolic Activation: NONE, Method: STANDARD PLATE); “active; positive” (Test System: E. COLI, Strain/Indicator: TM9, Metabolic Activation: RAT, LIVER, S-9, PHENOBARBITAL, Method: STANDARD PLATE); “active; positive” (Test System: E. COLI, Strain/Indicator: WP2, Metabolic Activation: NONE, Method: STANDARD PLATE); “active; positive” (Test System: E. COLI, Strain/Indicator: WP2, Metabolic Activation: RAT, LIVER, S-9, PHENOBARBITAL, Method: STANDARD PLATE). In addition, the mutagenic call by setting is: (Test System: E. COLI, Strain/Indicator: WP2 UVRA, Metabolic Activation: NONE, Method: STANDARD PLATE) “active; positive”; (Test System: E. COLI, Strain/Indicator: WP2 UVRA, Metabolic Activation: RAT, LIVER, S-9, PHENOBARBITAL, Method: STANDARD PLATE) “active; positive”.
In the case of `Cc1c2ccccc2cc2ccc3ccccc3c12`, the mutagenic call was “active; positive” (Test System: AMES SALMONELLA TYPHIMURIUM, Strain/Indicator: TA98, Method: STANDARD PLATE); “active; positive” (Test System: AMES SALMONELLA TYPHIMURIUM, Strain/Indicator: TA100, Metabolic Activation: RAT, INTACT HEPATOCYTES, AROCLOR 1254, Method: PREINCUBATION); “active; positive” under setting [1]; “active; positive” (Test System: AMES SALMONELLA TYPHIMURIUM, Strain/Indicator: TA100, Metabolic Activation: RAT, NADPH-FORTIFIED HOMOGENIZED HEPATOCYTES, AROCLOR 1254, Method: PREINCUBATION); “active; positive” (Test System: AMES SALMONELLA TYPHIMURIUM, Strain/Indicator: TA100, Metabolic Activation: RAT, SONICATED HEPATOCYTES, AROCLOR 1254, Method: PREINCUBATION); “active; positive” (Test System: AMES SALMONELLA TYPHIMURIUM, Strain/Indicator: TA100, Method: STANDARD PLATE).
With `C/C=C/C`, the mutagenic call is “inactive; negative” (Test System: AMES SALMONELLA TYPHIMURIUM, Strain/Indicator: TA98, Metabolic Activation: NONE, Method: GAS EXPOSURE); “inactive; negative” (Test System: AMES SALMONELLA TYPHIMURIUM, Strain/Indicator: TA98, Metabolic Activation: RAT LIVER S-9, PHENOBARBITAL AND BETA-NAPHTHOFLAVONE (40%), Method: GAS EXPOSURE); “inactive; negative” (Test System: AMES SALMONELLA TYPHIMURIUM, Strain/Indicator: TA100, Metabolic Activation: NONE, Method: GAS EXPOSURE); “inactive; negative” (Test System: AMES SALMONELLA TYPHIMURIUM, Strain/Indicator: TA100, Metabolic Activation: RAT LIVER S-9, PHENOBARBITAL AND BETA-NAPHTHOFLAVONE (40%), Method: GAS EXPOSURE); “inactive; negative” (Test System: AMES SALMONELLA TYPHIMURIUM, Strain/Indicator: TA1535, Metabolic Activation: NONE, Method: GAS EXPOSURE); “inactive; negative” (Test System: AMES SALMONELLA TYPHIMURIUM, Strain/Indicator: TA1535, Metabolic Activation: RAT LIVER S-9, PHENOBARBITAL AND BETA-NAPHTHOFLAVONE (40%), Method: GAS EXPOSURE). Besides, the mutagenic call by setting is: (Test System: AMES SALMONELLA TYPHIMURIUM, Strain/Indicator: TA1537, Metabolic Activation: NONE, Method: GAS EXPOSURE) “inactive; negative”; (Test System: AMES SALMONELLA TYPHIMURIUM, Strain/Indicator: TA1537, Metabolic Activation: RAT LIVER S-9, PHENOBARBITAL AND BETA-NAPHTHOFLAVONE (40%), Method: GAS EXPOSURE) “inactive; negative”; (Test System: E.COLI, Strain/Indicator: WP2UVRA, Metabolic Activation: NONE, Method: GAS EXPOSURE) “inactive; negative”; (Test System: E.COLI, Strain/Indicator: WP2UVRA, Metabolic Activation: RAT LIVER S-9, PHENOBARBITAL AND BETA-NAPHTHOFLAVONE (40%), Method: GAS EXPOSURE) “inactive; negative”.

The values are drawn from PubChem BioAssay AID1259407 (Chemical Carcinogenesis Research Information System (CCRIS), 2018).
